Test: GHS categories as the set defines them, by LD50: 1 up to 5, 2 up to 50, 3 up to 300, 4 up to 2000, 5 above 2000 mg/kg
Conditions: rat; in vivo; po

Compound	GHS category
COP(=S)(OC)Oc1ccc(/N=N/c2ccc(Cl)cc2)cc1	4
CC(F)(Cl)Cl	5
Cc1cc(C)c(C(=O)P(=O)(C(=O)c2c(C)cc(C)cc2C)c2ccccc2)c(C)c1	5
CN1CC(O)N(c2cc(C(C)(C)C)on2)C1=O (stereo unspecified)	4
C=CCCCCCCCCCO	5
O=C1c2ccccc2C(=O)c2c(NCCO)ccc(NCCO)c21	5
COC(=O)c1cc(Oc2ccc(C(=O)OC)cc2N)cc(C(=O)OC)c1	5
CCOC(C)(C)C	5
C=CCCCC(C)C	5
CC1=CCC(C(C)(C)OC(=O)C(C)C)CC1 (stereo unspecified)	5
c1ccc2sc(SSc3nc4ccccc4s3)nc2c1	5
CCC[C@H]1CCO[C@@H](C)S1	5
CCOC(=O)C(Cl)(Cl)Cl	5
Fc1ccccc1C1c2cc3c(cc2CCN1c1ccccc1)OCO3 (stereo unspecified)	4
COc1cc(OC)nc(NC(=O)NS(=O)(=O)c2ncccc2C(F)(F)F)n1	5
ClC1=C(Cl)C2(Cl)C3COCC3C1(Cl)C2(Cl)Cl (stereo unspecified)	5
CCN(C(=O)SCc1ccccc1)C(C)C(C)C (stereo unspecified)	5
CC1(C(=O)O)CCCCC1	4
Oc1c(Br)ccc2c(O)c(Br)ccc12	5

Compound	GHS category
CC[C@H]1CO[C@@](Cn2ccnc2)(c2cc3cc(Cl)cc(Cl)c3o2)O1	4
CC[C@H]1OC(=O)C[C@@H](O)[C@H](C)[C@@H](O[C@@H]2O[C@H](C)[C@@H](O[C@H]3C[C@@](C)(O)[C@@H](O)[C@H](C)O3)[C@H](N(C)C)[C@H]2O)[C@@H](CC=O)C[C@@H](C)C(=O)C=CC(C)=C[C@@H]1CO[C@@H]1O[C@H](C)[C@@H](O)[C@@H](OC)[C@H]1OC	5
O=CC=Cc1ccco1	4
O=C1CCc2c(cccc2OCCCN2CCC(O)(c3ccccc3)CC2)N1	4
COc1cc(OC)nc(NC(=O)NS(=O)(=O)c2c(C(=O)O)cnn2C)n1	5
CCCCCCCCCCCCCCOc1ccc(C(=O)O)o1	5
O=c1[nH]sc2cc(Cl)ccc12	5
C=C(C)CCO	5
C[C@@H]1CCO[C@@](Cn2cncn2)(c2cc3ccccc3o2)O1	4
CCC(=O)OC1C=CC2C3CCC(C3)C12 (stereo unspecified)	5
CS(=O)(=O)c1cc(C(F)(F)F)ccc1C(=O)c1cnoc1C1CC1	5
CCCNC(=O)c1sc(-c2ccc(OC)cc2)nc1C	5
C=C1CC[C@@]23C[C@@H]1C(C)(C)[C@@H]2C(O)C[C@H]3C (stereo partly specified)	5
CCN1CCN(C(=O)N[C@@H](C(=O)N[C@@H]2C(=O)N3C(C(=O)O)=C(CSc4nnnn4C)CS[C@H]23)c2ccc(O)cc2)C(=O)C1=O	5
C[C@@H]1O[C@@H]1P(=O)(O)O	5
CC(=O)Oc1ccccc1C(=O)Oc1cccc(CO[N+](=O)[O-])c1	5
CCN(CC)CCc1nc(-c2cccc(O)c2)no1	5
CC1CC(OC(=O)COc2ccccc2Cl)CC(C)(C)C1 (stereo unspecified)	5
CCn1nnnc1CSCCC(N)=O	4

Compound	GHS category
CCC(=O)O[C@]1(C(=O)CCl)[C@@H](C)C[C@H]2[C@@H]3CCC4=CC(=O)C=C[C@]4(C)[C@@]3(F)[C@@H](O)C[C@@]21C	5
O=CCC(=O)c1ccc(C2CCCCC2)cc1	4
CN1C2CCC1CC(OS(C)(=O)=O)C2 (stereo unspecified)	4
CCCC1OC(Cn2cncn2)(c2cc3ccccc3o2)OCC1CC (stereo unspecified)	4
Cc1nnc(SCC2=C(C(=O)O)N3C(=O)[C@@H](NC(=O)Cn4cnnn4)[C@H]3SC2)s1	5
CC(=O)OCC(=O)[C@@]12OC3(CCCC3)O[C@@H]1C[C@H]1[C@@H]3CCC4=CC(=O)C=C[C@]4(C)[C@@]3(F)[C@@H](O)C[C@@]12C	5
NC(=O)NCCO	5
Nc1nc(=O)c(Br)c(-c2ccccc2)[nH]1	5
Nc1ccc(CCc2ccc(N)cc2)cc1	5
CCCCCC(=Cc1ccccc1)C(OCC)OCC	5
CCCCCCCCCCCCCCCC(=O)NCC(=O)O	5
CCOc1ccc(C2(C(=O)OC(C#N)c3cccc(Oc4ccccc4)c3)CC2(Cl)Cl)cc1 (stereo unspecified)	5
COc1cc2c(cc1OC)C(c1ccccc1Cl)N(c1ccccc1)CC2 (stereo unspecified)	4
CC(CCc1ccccc1)NC(C)C(O)c1ccc(O)cc1 (stereo unspecified)	5
CCCCCCCCCCCCCCOC(=O)CCCCCCCCCCCCC	5
CCCC(=O)O[C@H]1[C@H](C)O[C@@H](O[C@H]2[C@H](N(C)C)[C@@H](O)[C@H](O[C@H]3[C@@H](CC=O)C[C@@H](C)[C@@H](O)/C=C/C=C/C[C@@H](C)OC(=O)C[C@@H](O)[C@@H]3OC)O[C@@H]2C)C[C@@]1(C)OC(=O)CC	5
CCC(=O)OCCCc1ccccc1	5
CCOCC1COC(Cn2cncn2)(c2cc3cc(Cl)cc(Cl)c3o2)O1 (stereo unspecified)	4

Reference: the CATMoS acute toxicity set (Mansouri et al. 2021)
